This is an account of results in US20240293344A1, “Unsaturated Hydroxamic Acid Derivatives and Their Use for the Treatment and Prevention of an Ammonia-Associated Disease or Disorder” (Versantis AG, priority 2021, published 2024).

Where two headings read alike, the source gives them in different places.

Data set [1] deals with S. typhimurium strains (TA98, TA100, TA1535, TA1537). As to the kind of experiment: Ames test (Ames MPF Penta 1), S. typhimurium strains. The following applies: TA98, TA100, TA1535, TA1537, with or without metabolic activation (S9). The source says:
A commercial microplate format test kit (Ames MPF™ Penta 1, Xenometrix, Switzerland) was used for this experiment. The most commonly used strains in the Ames tests, S. typhimurium with point mutations in the histidine operon and E. coli with mutations in the tryptophan operon were utilized as the model systems. The mutagenicity of the three hydroxamic acids was investigated in four S. typhimurium strains (TA98, TA100, TA1535, TA1537) and in the mixture of two E. coli strains (wp2 [pKM101] and wp2 uvrA) with and without metabolic activation (S9 fraction) according to the manufacturer's protocol.
Bacteria were exposed to 6 concentrations of the test compounds, solvent control (DMSO) and positive control substances (concentrations listed in Tables I-II below) for 90 min in the medium containing enough histidine for S. typhimurium or tryptophan for E. coli to support cell growth. After that, the cultures media were diluted with pH indicator solution lacking histidine or tryptophan and aliquoted into 48 wells of a 384-well plate. Within 48 hours, media containing cells that reverted to amino acid prototrophy turned yellow as bacteria metabolism reduced the pH of the media. The number of yellow wells containing revertant colonies was counted for each dose of the test compounds and compared to the solvent control.

A short description of data set [2]: Pharmacokinetics in male beagle dogs (plasma). It counts as in vivo, dog. Conditions: for bioavailability: dog. The source says:
The main objective of the experiment was to quantify the levels of 2-octynoHA in the plasma of male beagle dogs following I.V. administration of a solution of 2-octynoHA with HPβCD (1:1 molar ratio) (PK 1), oral (P.O.) administration of 2-octynoHA formulated in an uncoated gelatin capsule size 0 (PK 2), and oral administration of 2-octynoHA formulated in a coated (Eudragit S100 15% w/w, triethyl citrate 5% w/w, isopropyl alcohol 40% w/w, ethanol 40% w/w) gelatin capsule size 0 for colonic delivery (PK 3) (Table Ill). For each of the studies, three animals were administered with a single dose of the corresponding treatment. Plasma samples were collected at pre-determined time points (Table Ill).
In PK 1, the plasma samples were extracted by protein precipitation prior to analysis. In brief, 40 μL plasma was precipitated with 2 volumes (80 μL) of an organic solvent solution consisting of acetonitrile:methanol (80:20 v/v) containing 1% formic acid. Samples were vortex-mixed and centrifuged at 13,000 rpm. 100 μL of supernatant were further diluted with 100 μL water containing 0.1% formic acid (final dilution factor of 6×). The sample extracts were transferred into a 96-well plate. Four μL plasma extract were injected for chromatographic separation and high resolution/accurate mass analysis. Separation was performed on a 5 cm C18 UPLC column, detection and quantification were performed on a quadrupole time-of-flight (QTof) mass spectrometer in the positive ion mode.
In both PK 2 and PK 3, prior to extraction, plasma samples (ca. 700 μL) were acidified by adding 15 μL of 50% phosphoric acid in water. Then, plasma samples (40 μL) were extracted by protein precipitation by adding 2 volumes (80 μL) of an organic solvent solution consisting of acetonitrile:methanol (80:20 v/v) containing 0.2% formic acid.
Samples were vortex-mixed and centrifuged at 13,000 rpm for 5 min. 100 μL of supernatant were further diluted with 100 μL water containing 0.1% formic acid (final dilution factor of 6×). The sample extracts were transferred into a 96-well plate. Five μL were injected for chromatographic separation and further mass analysis. The chromatographic separation was performed on a 10 cm C18 UPLC column and the MS detection and quantification was performed on a quadrupole time-of-flight (QTof) mass spectrometer in the positive ion mode.
Concentrations of 2-octynoHA was quantified based on the calibration curve. In the PK 1, 2-octynoHA was detected at the m/z 156.1 with the retention time (RT) of 4.12 min. […] Concentration values below the lower limit of quantitation (LLOQ) (i.e., lowest amount of an analyte in a sample that can be quantitatively determined with suitable precision and accuracy) were considered equal to zero.

Regarding `CCCCCC#CC(=O)NO` [2-octynoHA, N-hydroxyoct-2-ynamide], in data set [1], the “mutagenicity (reverse mutations)” value is on record as “not mutagenic up to 1 mM”. In addition, the plasma concentration entry in data set [2] (PK 3: P.O., 300 mg per dog, coated (Eudragit S100) gelatin capsule for colonic delivery) was “below LLOQ”. Moreover, the bioavailability in data set [2] (male, beagle, plasma, po, 300 mg, uncoated gelatin capsule, dose-adjusted AUC0-t of PK 1 and PK 2, read-out: bioavailability after oral administration) was around 4.5%; in data set [2] (male, beagle, plasma, po, delivery via a colonic capsule, read-out: oral bioavailability), around 0%. In data set [2] (male, beagle, plasma, po, PK 2: P.O., 300 mg per dog, uncoated gelatin capsule), the Tmax worked out at 30 min. Also, the AUC(0-t) in data set [2] (male, beagle, plasma, po, PK 2: P.O., 300 mg per dog, uncoated gelatin capsule, read-out: AUC0-t (t=12 h)) is around 213 ng·h/mL; in data set [2] (plasma, iv, PK 1: I.V., 100 mg per dog, solution with HPβCD (1:1), male beagle dogs, read-out: AUC0-t (t=4 h)), around 1780 ng·h/mL.
